One assay has as its target T1, DPP-IV (Homo sapiens, UniProt P27487).
T1 construct: purchased Enzyme Systems Products SPE-01
As to the kind of experiment: In vitro assay for dipeptidyl peptidase inhibition. It counts as biochemical.

In another assay the test system is KK/H1J mice. The assay can be described thus: In vivo assay for glucose lowering (oral glucose tolerance test). The note with it: 4-6 week old fasted KK/H1J mice, oral dosing in 0.5% methylcellulose, glucose at 15 minutes, plasma glucose at 45 minutes. The protocol:
The glucose lowering effects of the compound of Example 2 were exemplified in 4-6 week old KK/H1J mice (Jackson Labs) in the context of an oral glucose tolerance test.
The mice were fasted overnight (about 14-18 hours), but allowed free access to water. After fasting, (time “t”=0), 25 μL of blood was drawn from the retro-orbital sinus and added to 0.025% heparinized saline (100 μL) on ice. The mice (10 per group) were then orally dosed with a solution of a compound of formula (1) in 0.5% methylcellulose (0.2 mL/mouse). Two controls groups received only 0.5% methylcellulose. At time=15 minutes, the mice were bled, as described above, and then dosed with […] glucose in distilled water (0.2 mL/mouse). The first control group was dosed with glucose. The second control group was dosed with water. At time=45 minutes, the mice were again bled, as described above. The blood samples were centrifuged, the plasma collected and analyzed for glucose content on a Roche-Hitachi 912 glucose analyzer.

[1] abbreviates: n-value given in brackets, read-out: DPP-IV IC50.

Counter-ions that a name gives are not always drawn. Like-named read-outs stand apart in the source and are kept apart here.

T1 sequence (P27487 whole entry, species assumed): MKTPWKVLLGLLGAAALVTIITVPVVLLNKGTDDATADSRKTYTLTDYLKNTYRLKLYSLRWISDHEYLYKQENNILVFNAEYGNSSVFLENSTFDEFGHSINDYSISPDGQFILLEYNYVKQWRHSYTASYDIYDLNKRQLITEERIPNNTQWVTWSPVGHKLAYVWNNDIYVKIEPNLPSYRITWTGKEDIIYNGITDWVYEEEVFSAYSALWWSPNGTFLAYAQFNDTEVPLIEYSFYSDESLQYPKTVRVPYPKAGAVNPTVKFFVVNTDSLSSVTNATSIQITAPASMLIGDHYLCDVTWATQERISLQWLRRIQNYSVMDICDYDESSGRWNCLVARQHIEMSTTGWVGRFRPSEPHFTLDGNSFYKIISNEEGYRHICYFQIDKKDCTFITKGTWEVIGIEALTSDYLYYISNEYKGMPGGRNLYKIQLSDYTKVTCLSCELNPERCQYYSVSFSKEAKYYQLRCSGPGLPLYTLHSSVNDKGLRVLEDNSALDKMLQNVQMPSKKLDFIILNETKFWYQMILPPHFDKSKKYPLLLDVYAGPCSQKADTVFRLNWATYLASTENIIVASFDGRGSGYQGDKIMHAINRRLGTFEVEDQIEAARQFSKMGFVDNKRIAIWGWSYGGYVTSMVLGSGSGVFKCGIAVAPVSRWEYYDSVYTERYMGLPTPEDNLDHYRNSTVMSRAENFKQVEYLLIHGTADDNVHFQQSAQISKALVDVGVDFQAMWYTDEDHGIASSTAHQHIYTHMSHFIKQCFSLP

Turning to `N[C@H]1CN(c2cc(N3CCC(F)(F)C3)ncn2)C[C@@H]1N1CC(F)(F)CCC1=O` [Example 2, 1-((3S,4S)-4-amino-1-(6-(3,3-difluoropyrrolidin-1-yl)pyrimidin-4-yl)pyrrolidin-3-yl)-5,5-difluoropiperidin-2-one], at DPP-IV (setting [1]), the IC50 stood at 8.39 nM. Besides, the “percent (%) inhibition of glucose excursion relative to the two control groups” value with KK/H1J mice is 39.8%.
As to `COc1ccc2[nH]c(C(=O)N3C[C@H](N)[C@@H](N4CCCCC4=O)C3)cc2c1` [Example 162, 1-[(3S,4S)-4-Amino-1-(5-methoxy-1H-indole-2-carbonyl)-pyrrolidin-3-yl]-piperidin-2-onehydrochloride], on DPP-IV (Examples 156-162, n-value in brackets, IC50's or percent inhibition at 300 nM, read-out: DPP-IV inhibition), the IC50 stood at 1460 nM.
On to “N-((R)-1-{4-[(3S,4S)-3-Amino-4-(2-oxo-piperidin-1-yl)-pyrrolidin-1-yl]-[1,3,5]triazin-2-yl}-pyrrolidin-3-yl)-acetamidetrifluoracetate [Example 43]”, for which the IC50 on DPP-IV (setting [1]) came to 227 nM.

Source of the values: US7485641B2, “Substituted 3-amino-pyrrolidino-4-lactams” (Pfizer, Inc., priority 2006, dated 2009).
